Measured values taken from patent publication EP1021178B1, “SELENOPHENE ANTI-TUMOR AGENTS” (Purdue Research Foundation, priority 1996, dated 1997).

Columns and labels:
[1] = in vivo activity of glycoside prodrug (preliminary); details: preliminary results
[2] = in vitro activity of glycoside prodrug (preliminary); details: preliminary results

SMILES: OC[C@H]1O[C@@H](OCc2ccc(-c3ccc(-c4cccs4)s3)s2)[C@H](O)[C@@H](O)[C@@H]1O [β-D-glucoside of 2-hydroxymethyl-∝-terthiophene]
- in vivo activities [1]: retains
- in vitro activities [2]: retains
